Data from patent publication US6706767B2, “Therapeutics for chemokine mediated diseases” (Chemokine Therapeutics Corporation, priority 2000, dated 2004).
Like-named read-outs stand apart in the source and are kept apart here.

Key:
[1] = target: MCP-1 receptor (CCR-2) (Homo sapiens, UniProt P41597); experiment: Inhibition of I125-labeled MCP-1 binding to the MCP-1 receptor (CCR-2); settings: I125 labeled MCP-1 as competitor; FIG. 1
Procedure: A dose response of phenanthrene-9,10-dione at different concentration in comparison to MCP-1.
This example discloses the ability of tricyclic compounds of the invention, such as phenanthrene-9,10-dione (compound 1), for inhibiting binding to the MCP-1 receptor (CCR-2). The binding studies were conducted using I^125 labeled MCP-1 as competitor. […] In FIG. 1, the results of competition studies are plotted using a standard scatchard plot analysis.

[2] = target: T1, CXCR1 (Homo sapiens, UniProt P25024); experiment: Inhibition of IL-8 binding to CXCR1; settings: FIG. 8
T1 sequence (P25024 1-350): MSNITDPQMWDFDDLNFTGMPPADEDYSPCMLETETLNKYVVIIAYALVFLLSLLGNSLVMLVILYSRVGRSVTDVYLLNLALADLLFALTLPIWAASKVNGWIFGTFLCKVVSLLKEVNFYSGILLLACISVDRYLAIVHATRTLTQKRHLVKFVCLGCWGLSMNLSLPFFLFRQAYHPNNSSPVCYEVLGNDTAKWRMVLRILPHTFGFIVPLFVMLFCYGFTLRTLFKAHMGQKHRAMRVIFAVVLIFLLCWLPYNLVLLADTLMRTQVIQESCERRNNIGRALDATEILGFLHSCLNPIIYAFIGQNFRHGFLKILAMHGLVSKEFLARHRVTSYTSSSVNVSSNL

[3] = target: T2, CXCR2 (Homo sapiens, UniProt P25025); experiment: Inhibition of IL-8 binding to CXCR2; settings: FIG. 8
T2 sequence (P25025 1-360): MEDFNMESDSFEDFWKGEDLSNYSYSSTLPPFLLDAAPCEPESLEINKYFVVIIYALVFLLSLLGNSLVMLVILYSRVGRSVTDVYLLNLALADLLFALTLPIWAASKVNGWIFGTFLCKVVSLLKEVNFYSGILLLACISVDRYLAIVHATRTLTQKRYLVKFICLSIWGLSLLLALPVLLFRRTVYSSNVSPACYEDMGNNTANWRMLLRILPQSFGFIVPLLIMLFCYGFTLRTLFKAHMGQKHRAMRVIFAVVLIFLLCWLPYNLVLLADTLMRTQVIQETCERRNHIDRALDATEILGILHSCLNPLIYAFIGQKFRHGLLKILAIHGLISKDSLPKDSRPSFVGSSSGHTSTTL

[4] = tested on: THP-1 cells; experiment: Inhibition of MCP-1 induced [Ca2+]i mobilization in Fura-2,AM loaded THP-1 cells; format: cell-based; settings: Homo sapiens, 0.5 h, 30 min incubation
Procedure: (§1) Fura-2,AM loaded THP-1 cells were incubated with M163 for 30 min prior to induction of [Ca^2+]i mobilization by 20 nM MCP-1. Cells were also evaluated in the presence of fMLP (1 mM)/cytochalasin B (0.5 mM) or M163 (600 ng/ml) as positive and negative controls respectively. […] The values represent the mean +/− one S.D.

[5] = tested on: THP-1 cells and T-cells; experiment: Cytoplasmic calcium rise induced by the compound itself; format: cell-based; settings: analogous to native MCP-1
Procedure: as §1

[6] = tested on: human neutrophils; experiment: Inhibition of IL-8 induced [Ca2+]i mobilization in human neutrophils; format: cell-based; settings: 30 minutes incubation, 10 nM IL-8
Procedure: Freshly isolated neutrophils loaded with Fura-2,AM were incubated with phenanthrene-9,10-dione for 30 minutes prior to induction of [Ca^2+]i mobilization by 10 nM IL-8. Values represent the increase in mobilization over basal levels (wavelength averaging at approximately 176 nM) and are the mean +/− one S.D. of n=3 experiments.

[7] = tested on: EAE mouse model; experiment: EAE mouse model of Multiple Sclerosis, clinical scores; format: in vivo; settings: 1 mg/kg/day for 14 days, compared to control saline injection
Source text: Experimental autoimmune encephalomyelitis (EAE) is a CD4^+ Th1-mediated inflammatory demyelinating disease of the central nervous system (CNS) that serves as a model for multiple sclerosis. It has previously been disclosed that monocyte chemotactic protein-one (MCP-1) regulates acute and relapsing autoimmune encephalomyelitis, and that MCP-1 production in the central nervous system is correlated with relapsing EAE development. In this example, the EAE mouse model for MS is used, in which the disease is induced with Bordetella pertussis toxin (Claude C. A. et. al., (1975) Journal of Immunology 114(5): 1537-1540 and Hosseimi, H. et. al., (2000) Neurology 54 (7): A166, An abstract presented in April 2000 on “Inhibition of proteosome prevents clinical signs in an experimental model of Multiple Sclerosis”). A dose of 1 mg/kg/day in a volume of 100 μl saline was given to animals for 14 days, and individual animals were observed daily and graded accordingly to their clinical severity as follows: grade 0, no abnormality; grade 1, limp tail; grade 2, limp tail and partial hind limb weakness; grade 3, complete hind limb paralysis; grade 4, complete hind limb paralysis and fore limb weakness; grade 5, death.

[8] = tested on: neutrophils; experiment: CPPD crystal induced neutrophil activation (chemiluminescence); format: cell-based; settings: 0.3 μg/ml and 1 μg/ml
Source text: (§2) In accordance with this aspect of the invention, tricyclic comounds such as phenanthrene-9,10-dione or corresponding salts may be used for the treatment of inflammatory diseases related to gout and arthritis.

[9] = tested on: neutrophils; experiment: fMLP induced neutrophil activation (chemiluminescence); format: cell-based; settings: 0.3 μg/ml and 1 μg/ml
Source text: as §2

[10] = tested on: neutrophils; experiment: fMLP induced neutrophil calcium level; format: cell-based; settings: FIG. 6, after 15 seconds stimulation

Sequence of MCP-1 receptor (CCR-2) (P41597 whole entry, species assumed): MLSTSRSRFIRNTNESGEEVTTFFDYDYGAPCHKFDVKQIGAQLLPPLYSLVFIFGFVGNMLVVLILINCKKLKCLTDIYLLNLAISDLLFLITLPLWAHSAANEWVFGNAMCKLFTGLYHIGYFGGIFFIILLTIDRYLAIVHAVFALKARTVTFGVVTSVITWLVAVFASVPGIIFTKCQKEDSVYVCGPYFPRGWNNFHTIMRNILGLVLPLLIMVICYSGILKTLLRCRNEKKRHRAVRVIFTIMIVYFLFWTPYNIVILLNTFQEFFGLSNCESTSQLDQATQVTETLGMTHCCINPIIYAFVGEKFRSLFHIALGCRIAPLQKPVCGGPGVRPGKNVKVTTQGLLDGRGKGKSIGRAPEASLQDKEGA

## O=C1C(=O)c2ccccc2-c2ccccc21 [phenanthrene-9,10-dione]
[1]
  inhibitory effect on the binding of MCP-1 to CCR-2: inhibitory effect
[2]
  inhibitory effect on the binding of IL-8 to CXCR1: inhibitory effect
[3]
  inhibitory effect on the binding of IL-8 to CXCR2: inhibitory effect
[4]; 20 nM MCP-1, read-out: IC50, MCP-1 associated induction of [Ca2+]i mobilization
  IC50: 0.25 mg/L
[4]; 20 nM MCP-1, value in parentheses, read-out: IC50, MCP-1 associated induction of [Ca2+]i mobilization
  IC50: 0.12 µM
[5]
  effect on cytoplasmic calcium concentration: induced a rapid, transient rise in cytoplasmic calcium concentration
[6]; 3 μM
  suppression of calcium level (IL-8 induced [Ca2+]i mobilization): about 63%
[6]; Neutrophil, 0.5 h
  IC50: 3 µM
[7]
  effect on clinical scores: beneficial effect on the clinical scores
[8]
  inhibition of CPPD crystal induced neutrophil activation: strong inhibition
[9]
  inhibition of fMLP induced neutrophil activation: strong inhibition
[10]
  inhibition of intracellular calcium ion release: effective inhibitor of intracellular calcium ion release
